From patent US10280198B2, “Therapeutic agents for reducing parathyroid hormone levels” (KAI PHARMACEUTICALS, INC., priority 2009, dated 2019) come the findings set out here.

The target of series [1] is T1, human calcium-sensing receptor (CaSR) (Homo sapiens, UniProt P41180).
T1 construct: expressed in transfected cells; host or cells: HEK 293T cells, transiently transfected (lipofectamine 2000); in some cases HEK293 cells stably transfected
T1 sequence (P41180 20-1078): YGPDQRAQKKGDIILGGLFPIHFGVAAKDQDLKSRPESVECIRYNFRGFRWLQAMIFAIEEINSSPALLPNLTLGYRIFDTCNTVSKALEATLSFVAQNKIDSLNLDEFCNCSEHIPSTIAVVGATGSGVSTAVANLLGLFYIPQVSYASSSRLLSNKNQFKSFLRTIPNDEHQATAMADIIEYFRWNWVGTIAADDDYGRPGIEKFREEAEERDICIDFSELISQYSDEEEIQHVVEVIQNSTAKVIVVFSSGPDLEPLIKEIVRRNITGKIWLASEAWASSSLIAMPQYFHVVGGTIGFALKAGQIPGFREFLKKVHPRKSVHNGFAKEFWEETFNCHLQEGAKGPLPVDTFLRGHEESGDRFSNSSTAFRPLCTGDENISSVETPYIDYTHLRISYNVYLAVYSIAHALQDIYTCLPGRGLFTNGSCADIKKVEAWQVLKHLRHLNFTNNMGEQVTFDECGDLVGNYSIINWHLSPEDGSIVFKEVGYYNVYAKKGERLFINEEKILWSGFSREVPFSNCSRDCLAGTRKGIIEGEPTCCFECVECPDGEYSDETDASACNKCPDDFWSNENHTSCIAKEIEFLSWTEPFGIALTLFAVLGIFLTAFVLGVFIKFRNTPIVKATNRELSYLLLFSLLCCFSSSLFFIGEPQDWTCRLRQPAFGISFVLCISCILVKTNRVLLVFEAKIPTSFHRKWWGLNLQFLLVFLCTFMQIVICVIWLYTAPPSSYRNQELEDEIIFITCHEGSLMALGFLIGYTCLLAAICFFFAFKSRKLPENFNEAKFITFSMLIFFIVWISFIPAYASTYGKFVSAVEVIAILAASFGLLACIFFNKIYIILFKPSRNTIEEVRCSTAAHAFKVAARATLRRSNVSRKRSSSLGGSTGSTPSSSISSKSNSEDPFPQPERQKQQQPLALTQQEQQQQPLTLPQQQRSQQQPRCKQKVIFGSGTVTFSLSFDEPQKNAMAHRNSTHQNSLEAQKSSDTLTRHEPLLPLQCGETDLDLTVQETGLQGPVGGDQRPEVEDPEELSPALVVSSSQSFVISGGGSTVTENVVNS
The series can be described thus: In vitro cell assay in HEK-293 expressing the human calcium-sensing receptor (IP1 production). In kind it is cell-based. To be noted: Table 5; IP1 production in HEK293 cells expressing human CaSR, eight concentrations in duplicate; read-out: EC50 in CaSR in vitro assay. As for the experimental part:
The activity of a variety of peptides and conjugates was tested against the human CaSR. These studies were conducted by measuring IP1 production in HEK293 cells that express the human CaSR. Each peptide was tested in eight different concentrations, in duplicates, to establish a dose response curve. Curve fitting was performed using GraphPad Prism. In Table 5, and throughout the specification, residues provided in capital letters are L-amino acids, while lower case letters indicate D-amino acids. “Ac” indicates an acetyl capping group, “NH2” indicates an amide capping group, “Ac-bAla” is an acetylated beta-alanine, “GSH” indicates reduced glutathione, “GS” indicates oxidized glutathione, “PEG” refers to polyethylene glycol, “PEG2” and “PEGS” refer to polyethylene glycol moieties of 2 kDa and 5 kDa, respectively, and “Mpa” refers to mercaptopropionic acid.
The day after, these cells were transfected with human CaSR receptor using lipofectamine 2000 transfection reagent 24 hrs post transfection, cells were seeded in 384 well plates at 8,000 cells/well. […] In some cases, EC50 values were determined by measuring inositol monophosphate production in the HEK293 cells, stably transfected with the human calcium-sensing receptor (see Table 1).
Cells were incubated with compounds at various concentrations (1 mM or 300 μM as the highest and further ½ log serial dilutions) at 37° C. for 1.5 hrs before reaction termination. […] In brief, incubation with the compound was terminated by sequentially adding D2 labeled-IP1 and cryptate-labeled anti-IP1 in lysis buffer and further incubating at room temperature for 60 minutes. […] Non-transfected 293 cells were used as negative control.
IP1 concentrations were calculated from standard curves (generated with Graph Pad Prism ver. 4) using known concentrations of IP1 standards.

For a further series, the system named is plasma PTH. The series can be described thus: In vivo PTH lowering after IV bolus in isoflurane-anesthetized normal Sprague Dawley rats. Further details: species or system rat. As to conditions: normal rats, AUC 1-4 h. As for the experimental part: The peptides were administered intravenously at a dose of 0.5 mg/kg into isoflurane-anesthetized normal Sprague Dawley rats. A control group of rats was treated with saline. Blood was drawn prior to dosing and every hour for 4 hours. Rats were maintained under isoflurane anesthesia for the entire study. […] Percent PTH reduction was calculated according to the following formula: AUCcmpd treated/AUCsaline control*100.
An intravenous (IV) bolus of saline was used as a control. Plasma (K2EDTA) PTH levels were assessed prior to dosing and 1, 2, 3 and 4 hours after dosing. Rats were maintained under isoflurane anesthesia for the entire study. […] In FIG. 2B, PTH is shown as percent of the baseline pre-dose value.
A series of compounds having an L-amino acid residue substituted for a D-amino acid residue were prepared. The compounds were administered as an IV bolus to normal Sprague Dawley rats at a dose of 0.5 mg/kg. An intravenous (IV) bolus of saline was used as a control. […] Rats were maintained under isoflurane anesthesia for the entire study.

The test system of series [2] is rat peritoneal mast cells. The series can be described thus: In vitro histamine induction in rat peritoneal mast cells. In kind it is cell-based. As for the experimental part: To further evaluate the relationship between compound structure and histamine release, a series of compounds was prepared and assessed for their ability to trigger induction of histamine in an in vitro assay using rat peritoneal mast cells. In this assay, compounds are incubated at 10 μM for 15 minutes at 37° C. with cells isolated from peritoneal lavage of SD rats. Following incubation, cell medium is collected and histamine is determined.
Accordingly, and as can be appreciated in view of the PTH data and the histamine data described hereinabove, in one embodiment, a compound that has activity to decrease PTH level in a subject in the absence of a histamine response is contemplated. In certain embodiments, absence of a histamine response intends a dose of the compound that produces a less than 10-fold, more preferably 8-fold, still more preferably 5-fold, and even still more preferably 3-fold, increase in histamine, measured in vitro in an assay as described herein, where the fold change is determined based on histamine levels before incubation with the compound and after 15 minutes incubation with compound. In a specific embodiment, the histamine response is determined in an in vitro assay using rat peritoneal mast cells isolated from peritoneal lavage of normal Sprague Dawley rats, and where the fold change is determined based on histamine levels before incubation with the compound and after 15 minutes incubation with compound. In the studies conducted herein, the in vitro evaluation of histamine release was performed using isolated rat peritoneal mast cells isolated by peritoneal lavage using cold HBSS+25 mM HEPES pH 7.4 containing heparin (5 u/mL). Cells were washed twice in stimulation buffer (HBSS+25 mM HEPES pH 7.4) and incubated with 10 μM of compound in stimulation buffer (HBSS+25 mM HEPES pH 7.4) for 15 minutes in a 96-well plate ([…]) at 37° C. Cell supernatant was analyzed for histamine using histamine EIA kit (Cayman #589651).
For in vitro evaluation of histamine release, isolated rat peritoneal mast cells were isolated by performing peritoneal lavage using cold HBSS+25 mM HEPES pH 7.4 containing heparin (5 u/mL). Cells were washed twice in stimulation buffer (HBSS+25 mM HEPES pH 7.4) and incubated with 10 μM of compound in stimulation buffer (HBSS+25 mM HEPES pH 7.4) for 15 minutes in a 96-well plate (10^6/well) at 37° C. Cell supernatant was analyzed for histamine using histamine EIA kit (Cayman #589651).

Read-outs that look alike come from different tables or passages of the source. Square brackets hold non-standard residues; d marks the D form. Peptide text beside a SMILES is read from it. dNle = CCCC[C@@H](N)C(=O)O; dNva = CCC[C@@H](N)C(=O)O

For `CC(=O)N[C@@H](CS)C(=O)N[C@@H](Cc1ccc(O)cc1)C(=O)NCC(=O)N[C@@H](CCCNC(=N)N)C(=O)N[C@@H](CCCCN)C(=O)N[C@@H](CCCCN)C(=O)N[C@@H](CCCNC(=N)N)C(=O)N[C@@H](CCCNC(=N)N)C(=O)N[C@@H](CCC(N)=O)C(=O)N[C@@H](CCCNC(=N)N)C(=O)N[C@@H](CCCNC(=N)N)C(=O)N[C@@H](CCCNC(=N)N)C(N)=O` [SEQ ID NO: 47], in series [1], the EC50 (in general, the midpoint of the concentration-response curve) worked out at 4.5 µM.

With `CC(=O)N[C@@H](Cc1ccc(O)cc1)C(=O)NCC(=O)N[C@@H](CCCNC(=N)N)C(=O)N[C@@H](CCCCN)C(=O)N[C@@H](CCCCN)C(=O)N[C@@H](CCCNC(=N)N)C(=O)N[C@@H](CCCNC(=N)N)C(=O)N[C@@H](CCC(N)=O)C(=O)N[C@@H](CCCNC(=N)N)C(=O)N[C@@H](CCCNC(=N)N)C(=O)N[C@@H](CCCNC(=N)N)C(N)=O` [SEQ ID NO: 48], the EC50 in series [1] is 16 µM.

On to “Ac-c(PEG2-C)arrrar-NH2 (XXXXXXX; D-residues) [SEQ ID NO: 57]”, for which the half-maximal effective concentration (EC50) in series [1] is 2.3 µM.

As for `CC(=O)N[C@H](CS)C(=O)N[C@H](CCCNC(=N)N)C(=O)N[C@H](CCCNC(=N)N)C(=O)N[C@H](Cc1ccccc1)C(=O)N[C@H](CCCNC(=N)N)C(=O)N[C@H](C)C(=O)N[C@H](CCCNC(=N)N)C(N)=O` [SEQ ID NO: 110, Ac-crrfrar-NH2] (Ac-[dC][dR][dR][dF][dR][dA][dR]-NH2), the “0.5 mg/kg IV bolus % PTH AUC of saline control” value (from here on “0.5 mg/kg IV bolus % PTH AUC”) in the series with plasma PTH (Table 6) amounted to 6%. For the same molecule, the “Histamine in vitro Fold change of non-treated at 10 uM” value in series [2] is recorded as 6.2 fold.

As for `CCC[C@@H](NC(=O)[C@@H](CCCNC(=N)N)NC(=O)[C@@H](CCCNC(=N)N)NC(=O)[C@@H](CCCNC(=N)N)NC(=O)[C@@H](CCC)NC(=O)[C@@H](CS)NC(C)=O)C(=O)N[C@H](CCCNC(=N)N)C(N)=O` [SEQ ID NO: 132, Ac-c-dNva-rrr-dNva-r-NH2] (Ac-[dC][dNva][dR][dR][dR][dNva][dR]-NH2), the “0.5 mg/kg IV bolus % PTH AUC” value in the series with plasma PTH (Table 7) is 27%. The “Histamine in vitro Fold change of non-treated at 10 uM” value in series [2] (Table 9, 10 μM, 15 minutes, 37° C.) was found to be 4.1 fold.

As to `CC(=O)N[C@H](CS)C(=O)N[C@H](CCCNC(=N)N)C(=O)N[C@H](CCCNC(=N)N)C(=O)NCC(=O)N[C@H](CCCNC(=N)N)C(=O)N[C@H](C)C(=O)N[C@H](CCCNC(=N)N)C(N)=O` [SEQ ID NO: 105, Ac-crrGrar-NH2] (Ac-[dC][dR][dR]G[dR][dA][dR]-NH2), the “0.5 mg/kg IV bolus % PTH AUC” value in the series on plasma PTH (Table 6) was determined as 69%. Further, the “Histamine in vitro Fold change of non-treated at 10 uM” value in series [2] is 1.8 fold.

As to `CC(=O)N[C@H](CS)C(=O)N[C@H](C)C(=O)N[C@H](CCCNC(=N)N)C(=O)N[C@H](CCCNC(=N)N)C(=O)N[C@H](CCCNC(=N)N)C(=O)N[C@@H](C(=O)N[C@H](CCCNC(=N)N)C(N)=O)C(C)C` [SEQ ID NO: 87, Ac-carrrvr-NH2] (Ac-[dC][dA][dR][dR][dR][dV][dR]-NH2), in the series on plasma PTH (Table 6), the “0.5 mg/kg IV bolus % PTH AUC” value is 79%. In addition, in series [2], the “Histamine in vitro Fold change of non-treated at 10 uM” value worked out at 1.2 fold.

With `CC[C@@H](C)[C@@H](NC(=O)[C@@H](CS)NC(C)=O)C(=O)N[C@H](CCCNC(=N)N)C(=O)N[C@H](CCCNC(=N)N)C(=O)N[C@H](CCCNC(=N)N)C(=O)N[C@H](C)C(=O)N[C@H](CCCNC(=N)N)C(N)=O` [SEQ ID NO: 96, Ac-cirrrar-NH2] (Ac-[dC][dI][dR][dR][dR][dA][dR]-NH2), in the series on plasma PTH (Table 6), the “0.5 mg/kg IV bolus % PTH AUC” value turned out to be 33%. Moreover, the “Histamine in vitro Fold change of non-treated at 10 uM” value in series [2] came to 3.0 fold.

For `CCC[C@@H](NC(=O)[C@@H](CCCNC(=N)N)NC(=O)[C@@H](C)NC(=O)[C@@H](CCCNC(=N)N)NC(=O)[C@@H](CCCNC(=N)N)NC(=O)[C@@H](CS)NC(C)=O)C(=O)N[C@H](CCCNC(=N)N)C(N)=O` [SEQ ID NO: 135, Ac-crrar-dNva-r-NH2] (Ac-[dC][dR][dR][dA][dR][dNva][dR]-NH2), in the series on plasma PTH (Table 7), the “0.5 mg/kg IV bolus % PTH AUC” value came to 8%. For the same molecule, the “Histamine in vitro Fold change of non-treated at 10 uM” value in series [2] was found to be 1.1 fold.

As for `CCCC[C@@H](NC(=O)[C@@H](CCCNC(=N)N)NC(=O)[C@@H](CCCNC(=N)N)NC(=O)[C@@H](CCCNC(=N)N)NC(=O)[C@@H](CCCC)NC(=O)[C@@H](CS)NC(C)=O)C(=O)N[C@H](CCCNC(=N)N)C(N)=O` [SEQ ID NO: 130, Ac-c-dNle-rrr-dNle-r-NH2] (Ac-[dC][dNle][dR][dR][dR][dNle][dR]-NH2), the “0.5 mg/kg IV bolus % PTH AUC” value in the series on plasma PTH (Table 7) was found to be 54%. Also, the “Histamine in vitro Fold change of non-treated at 10 uM” value in series [2] worked out at 9.2 fold.

Turning to `CC[C@@H](C)[C@@H](NC(=O)[C@@H](CCCNC(=N)N)NC(=O)[C@@H](CCCNC(=N)N)NC(=O)[C@@H](CS)NC(C)=O)C(=O)N[C@H](CCCNC(=N)N)C(=O)N[C@H](C)C(=O)N[C@H](CCCNC(=N)N)C(N)=O` [SEQ ID NO: 115, Ac-crrirar-NH2] (Ac-[dC][dR][dR][dI][dR][dA][dR]-NH2), the “0.5 mg/kg IV bolus % PTH AUC” value in the series with plasma PTH (Table 6) is reported as 0%. The “Histamine in vitro Fold change of non-treated at 10 uM” value in series [2] was found to be 3.4 fold.
